Measurements as given in patent US20240059671A1, “TYROSINE KINASE 2 (TYK2) DEGRADATION COMPOUNDS AND METHODS OF USE” (CULLGEN (SHANGHAI), INC., priority 2020, published 2024).

Biological target: TYK2 (Homo sapiens, UniProt P29597)
Assay: TYK2 protein degradation in MOLT-4 cells by immunoblotting
Assay type: cell-based
Design: endogenous in cells; host or cells: MOLT-4
Settings: MOLT-4 cells, 24 hours
Procedure, shortened: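 MOLT-4 cells were exposed to compounds at 0.5 and 5 μM for 24 h, then lysed in RIPA buffer with protease and phosphatase inhibitors. TYK2 was detected by SDS-PAGE immunoblot with chemiluminescence, and band densitometry gave percent degradation.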

Chain of TYK2 (P29597 whole entry): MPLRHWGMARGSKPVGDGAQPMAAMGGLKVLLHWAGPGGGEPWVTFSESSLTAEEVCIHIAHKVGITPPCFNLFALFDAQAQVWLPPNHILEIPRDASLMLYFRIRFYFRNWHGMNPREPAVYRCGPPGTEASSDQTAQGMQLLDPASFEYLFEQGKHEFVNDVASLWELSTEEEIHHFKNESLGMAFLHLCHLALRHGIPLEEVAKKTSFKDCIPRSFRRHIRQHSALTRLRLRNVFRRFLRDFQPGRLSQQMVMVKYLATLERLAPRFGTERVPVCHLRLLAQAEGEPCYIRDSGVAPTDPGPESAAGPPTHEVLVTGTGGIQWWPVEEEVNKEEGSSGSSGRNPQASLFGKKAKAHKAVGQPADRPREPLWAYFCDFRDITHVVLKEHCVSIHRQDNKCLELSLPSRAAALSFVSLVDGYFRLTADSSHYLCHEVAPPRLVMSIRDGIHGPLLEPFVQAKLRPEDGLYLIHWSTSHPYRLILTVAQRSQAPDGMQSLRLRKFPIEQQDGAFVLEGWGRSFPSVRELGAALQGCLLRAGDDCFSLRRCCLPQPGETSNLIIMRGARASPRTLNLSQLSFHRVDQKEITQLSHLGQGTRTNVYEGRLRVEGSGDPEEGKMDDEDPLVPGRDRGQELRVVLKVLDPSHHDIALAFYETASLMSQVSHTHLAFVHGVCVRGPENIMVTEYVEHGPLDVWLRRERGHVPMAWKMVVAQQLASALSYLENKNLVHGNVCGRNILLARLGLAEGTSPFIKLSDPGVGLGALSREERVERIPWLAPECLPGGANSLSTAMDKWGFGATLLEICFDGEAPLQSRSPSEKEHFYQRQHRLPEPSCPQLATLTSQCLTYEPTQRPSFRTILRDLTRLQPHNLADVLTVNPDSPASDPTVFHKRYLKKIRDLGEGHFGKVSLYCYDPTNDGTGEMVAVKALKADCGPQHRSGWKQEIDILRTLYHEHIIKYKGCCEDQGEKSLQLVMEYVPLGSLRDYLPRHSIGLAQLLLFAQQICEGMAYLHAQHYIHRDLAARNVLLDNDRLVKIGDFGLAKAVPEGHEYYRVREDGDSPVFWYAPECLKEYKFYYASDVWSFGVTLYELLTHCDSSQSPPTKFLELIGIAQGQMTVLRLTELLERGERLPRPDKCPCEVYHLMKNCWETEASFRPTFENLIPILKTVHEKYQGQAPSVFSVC

Row | TYK2 Degradation (MOLT-4, 0.5 μM) | TYK2 Degradation (MOLT-4, 5 μM) | TYK2 Degradation (0.5 μM) | TYK2 Degradation (5 μM) | SMILES
1 | C (C: ≤20% TYK2 degradation) | C (C: ≤20% TYK2 degradation) |  |  | CNC(=O)c1nnc(NC(=O)CNC(=O)CCCCCCOc2cc(-c3scnc3C)ccc2CNC(=O)[C@@H]2C[C@@H](O)CN2C(=O)[C@@H](NC(=O)C2(F)CC2)C(C)(C)C)cc1Nc1cccc(-c2ncn(C)n2)c1OC [CPD-106, 6-(2-(7-(2-(((2S,4R)-1-((S)-2-(1-Fluorocyclopropane-1-carboxamido)-3,3-dimethylbutanoyl)-4-hydroxypyrrolidine-2-carboxamido)methyl)-5-(4-methylthiazol-5-yl)phenoxy)heptanamido)acetamido)-4-((2-methoxy-3-(1-methyl-1H-1,2,4-triazol-3-yl)phenyl)amino)-N-methylpyridazine-3-carboxamide]
2 |  |  | 40% | ≤20% | CNC(=O)c1nnc(NC(=O)CNC(=O)CCCCNc2cccc3c2C(=O)N(C2CCC(=O)NC2=O)C3=O)cc1Nc1cccc(-c2ncn(C)n2)c1OC (stereo not shown) [CPD-045, 6-(2-(5-((2-(2,6-Dioxopiperidin-3-yl)-1,3-dioxoisoindolin-4-yl)amino)pentanamido)acetamido)-4-((2-methoxy-3-(1-methyl-1H-1,2,4-triazol-3-yl)phenyl)amino)-N-methylpyridazine-3-carboxamide]
3 | C (C: ≤20% TYK2 degradation) | C (C: ≤20% TYK2 degradation) |  |  | CNC(=O)c1nnc(NC(=O)CNC(=O)CCCCCCCNC(=O)C[C@H](NC(=O)[C@@H]2C[C@@H](O)CN2C(=O)[C@@H](NC(=O)C2(F)CC2)C(C)(C)C)c2ccc(-c3scnc3C)cc2)cc1Nc1cccc(-c2ncn(C)n2)c1OC [CPD-092, 6-(2-(8-((S)-3-((2S,4R)-1-((S)-2-(1-Fluorocyclopropane-1-carboxamido)-3,3-dimethylbutanoyl)-4-hydroxypyrrolidine-2-carboxamido)-3-(4-(4-methylthiazol-5-yl)phenyl)propanamido)octanamido)acetamido)-4-((2-methoxy-3-(1-methyl-1H-1,2,4-triazol-3-yl)phenyl)amino)-N-methylpyridazine-3-carboxamide]
4 |  |  | ≤20% |  | CNC(=O)c1nnc(NC(=O)C2CC2)cc1Nc1cccc(-c2ncn(CCNC(=O)CNc3cccc4c3C(=O)N(C3CCC(=O)NC3=O)C4=O)n2)c1OC (stereo not shown) [CPD-001, 6-(Cyclopropanecarboxamido)-4-((3-(1-(2-(2-((2-(2,6-dioxopiperidin-3-yl)-1,3-dioxoisoindolin-4-yl)amino)acetamido)ethyl)-1H-1,2,4-triazol-3-yl)-2-methoxyphenyl)amino)-N-methylpyridazine-3-carboxamide]
5 | C (C: ≤20% TYK2 degradation) |  |  |  | CNC(=O)c1nnc(NC(=O)CNC(=O)CNC(=O)C[C@H](NC(=O)[C@@H]2C[C@@H](O)CN2C(=O)[C@@H](NC(=O)C2(F)CC2)C(C)(C)C)c2ccc(-c3scnc3C)cc2)cc1Nc1cccc(-c2ncn(C)n2)c1OC [CPD-086, 6-(2-(2-((S)-3-((2S,4R)-1-((S)-2-(1-Fluorocyclopropane-1-carboxamido)-3,3-dimethylbutanoyl)-4-hydroxypyrrolidine-2-carboxamido)-3-(4-(4-methylthiazol-5-yl)phenyl)propanamido)acetamido)acetamido)-4-((2-methoxy-3-(1-methyl-1H-1,2,4-triazol-3-yl)phenyl)amino)-N-methylpyridazine-3-carboxamide]
6 |  |  | ≤20% | 40% | CNC(=O)c1nnc(NC(=O)CNC(=O)CCCCC(=O)N[C@H](C(=O)N2C[C@H](O)C[C@H]2C(=O)NCc2ccc(-c3scnc3C)cc2)C(C)(C)C)cc1Nc1cccc(-c2ncn(C)n2)c1OC [CPD-036, N^1-((S)-1-((2S,4R)-4-Hydroxy-2-((4-(4-methylthiazol-5-yl)benzyl)carbamoyl)pyrrolidin-1-yl)-3,3-dimethyl-1-oxobutan-2-yl)-N^6-(2-((5-((2-methoxy-3-(1-methyl-1H-1,2,4-triazol-3-yl)phenyl)amino)-6-(methylcarbamoyl)pyridazin-3-yl)amino)-2-oxoethyl)adipamide]
